Consider one compound from BindingDB's records for doi:10.1021/jm00388a021 (1987).

In experiment [1] the target is Thymidine kinase (Herpes simplex virus 2). As to the kind of experiment: Compound was evaluated for Kinetic constant for viral thymidine kinase of Herpes simplex virus (HSV) -2.
Experiment [2] concerns the target Thymidine kinase (Herpes simplex virus 1). The experiment is described as follows: Compound was evaluated for Kinetic constant for viral thymidine kinase of Herpes simplex virus (HSV) -1.

As for `O=c1[nH]c(=O)n([C@@H]2O[C@H](CO)[C@@H](O)[C@@H]2F)cc1I` [FIALURIDINE], the Ki – broadly, the equilibrium dissociation constant of an inhibitor or competing ligand from its target – in experiment [1] was found to be 950 nM; in experiment [2], 140 nM.
